Values of other authors, collected in patent US20250144118A1, “MIFEPRISTONE ORAL FORM FOR ITS USE IN CERVIX RIPENING AND LABOUR INDUCTION” (NORDIC GROUP B.V., priority 2020, published 2025).

What was measured:
[1] = test system: cervix of women in term pregnancies; details: 50, 100, 200, 400 and 600 mg of mifepristone; regardless of the dose
[2] = test system: cervix of pregnant women beyond 41 weeks' gestation; details: 200 mg mifepristone orally, findings not statistically significant
[3] = test system: cervix of women in full-term pregnancy; details: clinical trial

Structure (SMILES): CC#C[C@]1(O)CC[C@H]2[C@@H]3CCC4=CC(=O)CCC4=C3[C@@H](c3ccc(N(C)C)cc3)C[C@@]21C [mifepristone, Mifepristone]
- efficiency vs placebo [1]: no more effective than placebo
- Bishop score after 24 hours vs. placebo [2]: improve the Bishop score after 24 hours vs. placebo
- use of prostaglandin ([2]; vs. placebo): reduce the use of prostaglandin
- induction of cervical ripening and labour [3]: efficient on inducing cervical ripening and labour
